Source: patent US20160022636A1, “PHYSIOLOGICAL LIGANDS FOR GPR139” (JANSSEN PHARMACEUTICA NV, priority 2013, published 2016)
“And” between values parts separate entries of the source, which are not always exact repeats. Equal values may be shown once. Read-outs that look alike come from different tables or passages of the source.

What was measured:
[1] = molecular target: T1, mouse GPR139 (Mus musculus, UniProt Q80UC8); test: GTPγS binding dose response, COS7 membranes co-transfected with mouse GPR139 and GO2Q; type: biochemical; conditions: mouse GPR139, FIG. 2 C and D
T1 construct: expressed in transfected cells; host or cells: COS7
T1 sequence (Q80UC8 1-345): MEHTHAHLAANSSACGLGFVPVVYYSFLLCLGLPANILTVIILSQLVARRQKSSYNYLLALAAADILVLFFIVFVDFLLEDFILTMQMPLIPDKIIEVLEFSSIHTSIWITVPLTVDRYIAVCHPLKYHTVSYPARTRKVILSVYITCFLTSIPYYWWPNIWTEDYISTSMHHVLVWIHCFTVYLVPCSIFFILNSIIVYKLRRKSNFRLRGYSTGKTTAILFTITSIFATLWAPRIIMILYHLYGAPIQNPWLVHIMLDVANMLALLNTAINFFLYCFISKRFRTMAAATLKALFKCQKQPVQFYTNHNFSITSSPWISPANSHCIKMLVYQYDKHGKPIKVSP
Excerpt: (§1) FIG. 2: Tryptophan, phenylalanine, and their derivatives activate GPR139. Human (A and B) or mouse (C and D) GPR139 were co-transfected with chimeric G-protein GO2Q into COS7 cells. Cell membranes from transfected cells were used in GTPγS binding studies using various ligands at different concentrations to stimulate GPR139. Membranes from COS7 cells transfected by GO2Q were used as the controls (E and F).

[2] = molecular target: T2, GPR139 (Homo sapiens, UniProt Q6DWJ6); test: GTPγS binding dose response, COS7 membranes co-transfected with human GPR139 and GO2Q; type: biochemical; set-up: expressed in transfected cells; host or cells: COS7; conditions: human GPR139, FIG. 2 A and B
T2 sequence (Q6DWJ6 1-353): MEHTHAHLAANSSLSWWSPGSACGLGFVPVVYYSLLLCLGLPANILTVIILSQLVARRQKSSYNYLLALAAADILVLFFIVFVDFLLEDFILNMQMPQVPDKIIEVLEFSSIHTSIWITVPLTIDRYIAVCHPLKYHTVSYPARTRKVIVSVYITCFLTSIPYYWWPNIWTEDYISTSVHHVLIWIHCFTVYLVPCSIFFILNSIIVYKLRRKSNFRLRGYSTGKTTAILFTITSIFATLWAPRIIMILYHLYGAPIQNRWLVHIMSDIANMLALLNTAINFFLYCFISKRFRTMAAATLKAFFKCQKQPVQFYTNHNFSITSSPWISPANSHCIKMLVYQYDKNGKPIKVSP
Excerpt: as §1

[3] = molecular target: T2, GPR139; test: calcium mobilization assay (FLIPR), GPR139 transiently expressed in HEK293 cells; type: cell-based; set-up: expressed in transfected cells; host or cells: HEK293; conditions: similar to GTPγS binding studies
Excerpt: For these experiments human GPR139 was transiently expressed in HEK293 cells and calcium mobilization was stimulated using L-Trp, L-Phe or their derivatives.

[4] = system: GO2Q alone; test: GTPγS binding assay, control membranes from COS7 cells expressing GO2Q alone (Ct-GO2Q); type: biochemical
Excerpt: as §1, with “Human” for “FIG. 2: Tryptophan, phenylalanine, and their derivatives activate GPR139. Human”
(§2) In order identify the ligands for GPR139 two improvements in the detection assay were made to allow for the ligands to be detected. First, we chose to use a GTPγS binding assay instead of using live cultured cells. The GTPγS binding assay is a cell free system that uses the cell membrane of the cell(s) of interest rather than the live cell(s). One advantage of this assay is that potential ligands present in the cell culture media are washed away when the cell membrane is prepared. This reduces the basal level of signal and increase the chance of detecting receptor ligands when assessing compounds that activate the receptor. Second, a GO2Q chimeric G-protein was created to be co-expressed with GPR139 in order to increase the signal-to-noise ratio in the GTPγS binding assay. Historically, the Gi, Go coupled GPCRs offer much greater signal-to-noise ratio in GTPγS binding studies. For Gs and Gq coupled GPCRs, although ligand-stimulated specific signals can be detected in a GTPγS binding assay, the signal-to-noise ratios are often very small. To address this a chimeric GO2-Gq chimeric G-protein, GO2Q, with the N-terminus from Go2 protein and the C-terminus from Gq protein.
(§3) To test for compounds that activate GPR139, different amino acids and their derivatives (Table 2) were tested as ligands in the GTPγS binding assay using cell membranes from COS7 cells co-expressing GPR139 and GO2Q. Cell membrane from COS7 cells expressing GO2Q alone or co-expressing other GPCRs were also tested in GTPγS binding assay in parallel as controls. Each compound was tested in triplicate.

[5] = molecular target: T2, GPR139; test: GTPγS binding assay, membranes from COS7 cells co-expressing GPR139 and GO2Q, single concentration screen; type: biochemical; set-up: expressed in transfected cells; host or cells: COS7; conditions: for Activation levels of GPR139 (GTPγS binding signal), GPR139-GO2Q: 1 mM final concentration, single wells of triplicate, COS7 membranes co-expressing GPR139 and GO2Q
Procedure: as §2, §3

[6] = 1 mM final concentration, single wells of triplicate, COS7 membranes with GO2Q alone (control panel)

| SMILES | dose response activation of GPR139 (in words) [1] | dose response activation of GPR139 (in words) [2] | Activation levels (GTPγS binding signal), Ct-GO2Q [4, 6] | Activation levels of GPR139 (GTPγS binding signal), GPR139-GO2Q [5] | other results |
| --- | --- | --- | --- | --- | --- |
| Cn1cc(C[C@@H](N)C(=O)O)c2ccccc21 [1-methyl-D-Trp] | specifically activate GPR139 in a dose-responsive manner | specifically activate GPR139 in a dose-responsive manner | – | – | potency in calcium mobilization compared with L-Trp and L-Phe (in words) [3]: higher potencies |
| Cn1cc(C[C@H](N)C(=O)O)c2ccccc21 [1-methyl-L-Trp] | specifically activate GPR139 in a dose-responsive manner | specifically activate GPR139 in a dose-responsive manner | – | – | potency in calcium mobilization compared with L-Trp and L-Phe (in words) [3]: higher potencies |
| CNCC(O)c1ccc(O)c(O)c1 (stereo not shown) [Adrenaline] | – | – | 2240 and 2117 and 2045 | 2721 and 2624 and 2670 | – |
| C[C@H](N)C(=O)O [Ala] | – | – | 1903 and 2049 and 2139 | 2363 and 2348 and 2439 | – |
| CC(N)Cc1ccccc1 (stereo not shown) [Amphetamine, amphetamine] | specifically activate GPR139 in a dose-responsive manner | specifically activate GPR139 in a dose-responsive manner | 2331 and 2132 and 2001 | 7242 and 6744 and 7263 | activation of GPR139 in GTPγS binding assay (in words) ([5]; 1 mM): activated GPR139 |
| N=C(N)NCCC[C@H](N)C(=O)O [Arg] | – | – | – | 2806 and 2783 and 2528 | Activation levels (GTPγS binding signal), Ct-GO2Q [4]: 2171 and 2131 and 2255 |
| NC(=O)C[C@H](N)C(=O)O [Asn] | – | – | 2195 and 2142 and 2133 | 2806 and 2483 and 2547 | – |
| N[C@@H](CC(=O)O)C(=O)O [Asp] | – | – | 2177 and 2137 and 2132 | 2758 and 2922 and 2925 | – |
| N[C@@H](CS)C(=O)O [Cys] | – | – | 1928 and 2132 and 2114 | 2168 and 2458 and 2336 | – |
| N[C@@H](CSSC[C@H](N)C(=O)O)C(=O)O [Cystine] | – | – | 2242 and 2149 and 2229 | 2501 and 2652 and 2258 | – |
| N[C@H](Cc1ccccc1)C(=O)O [D-Phe, D-phenylalanine] | specifically activate GPR139 in a dose-responsive manner | specifically activate GPR139 in a dose-responsive manner | – | – | – |
| N[C@H](Cc1c[nH]c2ccccc12)C(=O)O [D-Trp, D-tryptophan] | specifically activate GPR139 in a dose-responsive manner | specifically activate GPR139 in a dose-responsive manner | – | – | – |
| NCCc1ccc(O)c(O)c1 [DA] | – | – | 2250 and 2213 and 2319 | 2688 and 2825 and 2708 | – |
| NC(=O)CC[C@H](N)C(=O)O [Gln] | – | – | 2181 and 2327 and 2336 | 2583 and 2525 and 2766 | – |
| N[C@@H](CCC(=O)O)C(=O)O [Glu] | – | – | 2242 and 2310 and 2311 | 2847 and 2837 and 2841 | – |
| NCC(=O)O [Gly] | – | – | 1936 and 2133 and 2289 | 2560 and 2505 and 2414 | – |
